This passage reports IC50 and EC50 results from US20100009973A1, “Integrase Inhibitors 3” (AVEXA LIMITED, priority 2006, published 2010).

The target of the first experiment is T1, HIV integrase (Human immunodeficiency virus type 1 group M subtype B, UniProt P04585). Put plainly: 3'processing/strand transfer combined assay. The class given is biochemical.
Conditions: not given
As for the experimental part:
(§1) A combined 3′-processing/strand transfer assay procedure similar to that published (Ovenden et al. Phytochemistry. 2004 December; 65(24):3255-9.) was used. This assay was adapted to a 96 well plate format. Briefly, 400 ng of […] is incubated with 30 nM substrate DNA, consisting of annealed U5 LTR sequence oligonucleotides tagged with Digoxigenin (DIG; 5′-[…]-DIG-3′) or biotin (5′-Bio-[…]-3′) so that each substrate has either a DIG or Bio tag on opposite strands. Reactions are carried out for 2 hrs at 37° C., products generated as a result of 3′processing and strand transfer activity are bound to streptavidin plates and detected with using anti-DIG-alkaline phosphatase conjugate and p-nitro phenyl phosphate substrate.
In general, IC50 refers to the concentration at which inhibition is half-maximal. Regarding `N#Cc1c(-c2ccoc2)cc(-c2ccc(N3CCOCC3)cc2)nc1OCc1ccc(C(=O)O)s1` [compound 14483], the IC50 fell in the range of 10 to 50 µM.

The same experiment, now with this note: Table 8 cells that name no assay; taken as the 3'processing/strand transfer combined assay; read-out: IC50.
Take `N#Cc1c(-c2ccoc2)cc(-c2ccc(N3CCOCC3)cc2)nc1OCc1nc(C(=O)O)cs1` [compound 14693]: the IC50 was less than 10 µM.
Same read-out and setting: for `N#Cc1cc(C(=O)O)sc1COc1nc(-c2ccc(N3CCOCC3)cc2)cc(-c2ccoc2)c1C#N` [compound 14905] the value was less than 10 µM; for `CCOc1cnc(-c2cc(-c3ccc(N4CCOCC4)cc3)nc(OCc3ccsc3C(=O)O)c2C#N)o1` [compound 14963], 10 to 50 µM.
The same measure, in the same setting: for `Cc1cc(C(=O)O)ccc1COc1nc(-c2ccc(N3CCOCC3)cc2)cc(-c2ccoc2)c1C#N` [compound 14499] the value was less than 10 µM.
Turning to `N#Cc1c(-c2ccoc2)cc(-c2ccc(N3CCOCC3)cc2)nc1OCc1c(C(=O)O)csc1Br` [compound 14906], the 50% inhibitory concentration (IC50) was less than 10 µM.
`Cc1cc(-c2cc(-c3ccc(N4CCOCC4)cc3)nc(OCc3ccc(C(=O)O)s3)c2C#N)on1` [compound 14959]: the IC50 lay in the range of 10 to 50 µM.
With `N#Cc1c(-c2ccoc2)cc(-c2ccc(N3CCOCC3)cc2)nc1OCc1ccc(C(=O)O)cc1` [compound 14353], the IC50 was less than 10 µM.
The same measure, in the same setting: to `N#Cc1c(-c2ccoc2)cc(-c2ccc(N3CCOCC3)cc2)nc1OCc1nc(C(=O)O)co1` [compound 14761] belongs 10 to 50 µM; to `CCOc1cnc(-c2cc(-c3ccc(N4CCOCC4)cc3)nc(OCc3csc(C(=O)O)c3)c2C#N)o1` [compound 15044], 10 to 50 µM; to `Cc1cc(-c2cc(-c3ccc(N4CCOCC4)cc3)nc(OCc3csc(C(=O)O)c3)c2C#N)on1` [compound 15045], less than 10 µM.

A further experiment addresses T1, HIV integrase. Put plainly: Strand transfer specific assay. The class given is biochemical. As to conditions: Table 8 cells marked (ST) / (ST assay): strand transfer specific. As for the experimental part:
as §1
The strand transfer specific assay is of similar format to that of the 3′processing/strand transfer combined assay except that it uses a biotinylated substrate that represents a pre-processed LTR end (5′-Bio-[…]-3′).
As to `CCOc1cnc(-c2cc(-c3ccc(N4CCOCC4)cc3)nc(OCc3sc(C(=O)O)cc3C#N)c2C#N)o1` [compound 15424], the IC50 is less than 10 µM.
Turning to `Cc1cc(-c2cc(-c3ccc(N4CCOCC4)cc3)nc(OCc3ccc(C(=O)O)cc3Br)c2C#N)on1` [compound 15300], the IC50 was less than 10 µM.
With `N#Cc1c(-c2oncc2C(=O)O)cc(-c2ccc(N3CCOCC3)cc2)nc1OCc1ccc(C(=O)O)s1` [compound 15435], the IC50 was less than 10 µM.
Still for that read-out and setting: to `CCOc1cnc(-c2cc(-c3ccc(N4CCOCC4)cc3)nc(OCc3ccc(C(=O)O)cc3Br)c2C#N)o1` [compound 15303] belongs less than 10 µM.

A further experiment relates to HIV. Put plainly: Inhibition of HIV replication (extracellular p24). The class given is cell-based. Conditions: Human immunodeficiency virus 1; concentration inhibiting HIV p24 production to 50% of no drug controls. As to the method:
Cells are seeded into 96 well microtitre plates at 50,000 cells per 50 ul per well in RF-10 containing 2 μg/mL polybrene (RF-10/2). Compounds are prepared to 4× final concentration in RF-10/2, and 30 μL added to cells. Virus (40 μL in RF-10/2 containing 1600 pfu) is added to each well or 40 μL RF-10/2 for negative controls and for assaying compound cytotoxicity. After 24 hrs, an additional 90 μL of media or media containing 1× compound is added to each well. At 4 days post infection, 100 μL of media is removed from each well and replaced with 100 μl of fresh media with or without compound. Forty eight hours later supernatants are harvested and levels of extracellular p24 determined. Supernatants are diluted 1 in 10,000 and p24 levels assayed using the Vironostika p24 assay kit. EC50 is calculated as the concentration required to inhibit HIV p24 production to 50% that of no drug controls.
What is called EC50 is the midpoint of the concentration-response curve. High values mean weaker potency, low ones greater potency. On to `N#Cc1c(-c2ccoc2)cc(-c2ccc(N3CCOCC3)cc2)nc1OCc1ccc(C(=O)O)s1` [compound 14483], for which the EC50 is less than 10 µM.
